# Source: article PMC3794980, “Identification of Conserved and HLA Promiscuous DENV3 T-Cell Epitopes” (PLoS Neglected Tropical Diseases, 2013)
# Read-outs that look alike come from different tables or passages of the source. Where no end group is shown, it is not given here.
# What was measured:
# Experiment in all cases: biochemical
# Assay type in all cases: binding
# [1] = biological target: DRB1*1501 (Homo sapiens, UniProt P01903+P01911)
# [2] = biological target: DRB1*0404 (Homo sapiens, UniProt P01903+P01911, A100R/A169T/F76Y/I96L/K127E/L162R/M171V/N62H/P40V/Q125Y/R42H/S133A/S149N/S66Y/V209L/W38E)
# [3] = biological target: DRB1*1302 (Homo sapiens, UniProt P01903+P01911, A100E/A169T/K41T/L162R/M171V/P40S/Q125H/Q178H/Q39Y/Q99D/R42S/S66N/T262R/V115G/W38E/Y61H)
# [4] = biological target: DRB1*0405 (Homo sapiens, UniProt P01903+P01911, A100R/A169T/D86S/F76Y/I96L/K127E/L162R/M171V/N62H/P40V/Q125Y/R42H/S133A/S149N/S66Y/V115G/V209L/W38E)
# [5] = biological target: DRB5*0101 (Homo sapiens, UniProt P01903+Q30154)
# [6] = biological target: DRB1*0101 (Homo sapiens, UniProt P01903+P01911, A100R/D57E/F55L/F60I/F76Y/I96L/L162R/M171V/P40L/Q125E/R42F/V115G/Y59C)
# [7] = biological target: DRB1*0701 (Homo sapiens, UniProt P01903+P01911, A100R/A102G/A103Q/D57E/D86V/E43K/F76Y/K127E/L162R/M171V/P40G/Q125H/Q99D/R33Q/R42Y/R54Q/S133A/S66F/T210M/V115G/Y107V/Y59L/Y89S)
# [8] = biological target: DRB1*0802 (Homo sapiens, UniProt P01903+P01911, A100R/A103L/A169T/F76Y/H45Y/I96F/K41T/L162R/M171V/P40S/Q125H/Q178H/Q39Y/Q99D/R218S/R42G/S66Y/V115G/W38E)
# [9] = biological target: DRB3*0101 (Homo sapiens, UniProt P01903+P79483)
# [10] = biological target: DRB1*0901 (Homo sapiens, UniProt P01903+P01911, A100R/A103E/D57H/D86V/F55Y/F60I/F76Y/I96F/K127E/L162R/M171V/P40D/Q125H/Q99R/R33Q/R42F/S133A/S66N/T210M/V115G/W38K/Y107V/Y59G/Y89S)
# [11] = biological target: DRB1*0401 (Homo sapiens, UniProt P01903+P01911, A100K/A169T/F76Y/I96L/K127E/L162R/M171V/N62H/P40V/Q125Y/R42H/S133A/S149N/S66Y/V115G/V209L/W38E)
# [12] = biological target: DRB1*0301 (Homo sapiens, UniProt P01903+P01911, A100K/A102G/A103R/A169T/F55Y/I96L/K41T/L162R/M171V/P40S/Q125H/Q178H/Q39Y/R42S/S66N/T106N/T262R/W38E/Y61H)
# [13] = biological target: DRB4*0101 (Homo sapiens, UniProt P01903+P13762, G164S)
# [14] = competitive inhibition of radiolabeled standard peptide, DRB1*1302, read-out: Binding Affinity (nM) DRB1*1302
# [15] = competitive inhibition of radiolabeled standard peptide, DRB1*0901, read-out: Binding Affinity (nM) DRB1*0901
# Chain of DRB1*1302 (P01903 26-254 limits assumed, other chains not shown): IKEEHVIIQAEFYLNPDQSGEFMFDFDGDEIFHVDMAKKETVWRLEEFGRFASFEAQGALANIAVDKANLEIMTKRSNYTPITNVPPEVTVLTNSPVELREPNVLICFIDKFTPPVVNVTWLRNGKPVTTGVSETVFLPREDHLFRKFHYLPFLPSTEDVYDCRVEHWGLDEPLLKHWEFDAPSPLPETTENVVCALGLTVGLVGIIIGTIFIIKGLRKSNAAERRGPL
# Chain of DRB1*0301 (P01903 26-254, other chains not shown): as the sequence (P01903 26-254 limits assumed, other chains not shown) above
Compound,IC50 [1],IC50 [2],"IC50 [3, 14]",IC50 [4],IC50 [5],IC50 [6],IC50 [7],IC50 [8],IC50 [9],"IC50 [10, 15]",IC50 [11],IC50 [12],IC50 [13],"IC50 ([3]; competitive inhibition of radiolabeled standard peptide, '-' distinct from ND, read-out: Binding Affinity (nM) DRB1*1302)","IC50 ([10]; competitive inhibition of radiolabeled standard peptide, '-' distinct from ND, read-out: Binding Affinity (nM) DRB1*0901)",IC50 [3],IC50 [10]
CC[C@H](C)[C@H](NC(=O)[C@H](C)NC(=O)[C@H](CC(N)=O)NC(=O)[C@H](C)NC(=O)[C@H](CC(C)C)NC(=O)[C@H](CCC(N)=O)NC(=O)[C@H](CCCNC(=N)N)NC(=O)[C@H](Cc1c[nH]cn1)NC(=O)[C@H](CCC(=O)O)NC(=O)[C@@H]1CCCN1)C(=O)N[C@@H](Cc1ccccc1)C(=O)N[C@@H](CCCCN)C(=O)N[C@@H](CC(C)C)C(=O)N[C@H](C(=O)N[C@@H](Cc1ccc(O)cc1)C(=O)N[C@@H](CCC(N)=O)C(=O)N[C@@H](CC(N)=O)C(=O)O)[C@@H](C)O [NS5 558-574],0.401 µM,2.65 µM,1400 nM,0.667 µM,0.391 µM,0.489 µM,0.134 µM,0.539 µM,1.08 µM,1930 nM,2.82 µM,0.586 µM,,,,,
CC[C@H](C)[C@H](NC(=O)[C@@H](N)CCCCN)C(=O)N1CCC[C@H]1C(=O)NCC(=O)NCC(=O)N[C@@H](C)C(=O)N[C@@H](CCSC)C(=O)N[C@@H](Cc1ccc(O)cc1)C(=O)N[C@@H](C)C(=O)N[C@@H](CC(=O)O)C(=O)N[C@@H](CC(=O)O)C(=O)N[C@H](C(=O)N[C@@H](C)C(=O)NCC(=O)N[C@@H](Cc1c[nH]c2ccccc12)C(=O)N[C@@H](CC(=O)O)C(=O)N[C@H](C(=O)O)[C@@H](C)O)[C@@H](C)O [NS5 523-539],15.1 µM,3.13 µM,1430 nM,3.17 µM,4.12 µM,0.733 µM,6.56 µM,1.16 µM,0.045 µM,13200 nM,0.0073 µM,0.0093 µM,0.445 µM,,,,
CSCC[C@H](NC(=O)[C@H](CC(C)C)NC(=O)[C@H](CCCNC(=N)N)NC(=O)[C@H](Cc1c[nH]cn1)NC(=O)[C@H](CC(=O)O)NC(=O)[C@H](CS)NC(=O)[C@H](CC(C)C)NC(=O)[C@H](CCC(N)=O)NC(=O)[C@@H](NC(=O)[C@H](Cc1ccc(O)cc1)NC(=O)[C@@H](NC(=O)[C@@H](N)CCC(=O)O)C(C)C)[C@@H](C)O)C(=O)N[C@@H](CO)C(=O)N[C@@H](C)C(=O)N[C@@H](C)C(=O)O [NS1 173-187],1.04 µM,1.29 µM,,1.45 µM,0.753 µM,0.026 µM,1.66 µM,0.9 µM,0.057 µM,,0.502 µM,0.787 µM,6.15 µM,4600 nM,608 nM,,
CC(C)C[C@H](NC(=O)[C@H](CCC(=O)O)NC(=O)[C@H](CCCCN)NC(=O)[C@@H](N)CCCNC(=N)N)C(=O)N[C@@H](CC(C)C)C(=O)N[C@H](C(=O)N[C@H](C(=O)N[C@@H](Cc1ccccc1)C(=O)N[C@@H](CCCCN)C(=O)N[C@@H](CC(N)=O)C(=O)N[C@@H](C)C(=O)N[C@@H](Cc1c[nH]cn1)C(=O)N[C@@H](C)C(=O)N[C@@H](CCCCN)C(=O)N[C@@H](CCCCN)C(=O)O)[C@@H](C)O)C(C)C [Envelope 231-245],0.0052 µM,1.59 µM,,0.031 µM,0.025 µM,0.0051 µM,3.78 µM,0.0072 µM,16.5 µM,,0.0035 µM,2.32 µM,0.057 µM,,,17200 nM,48 nM
CC[C@H](C)[C@H](NC(=O)[C@H](CCC(=O)O)NC(=O)CNC(=O)[C@H](CCCNC(=N)N)NC(=O)[C@H](CCCCN)NC(=O)[C@@H](N)CC(C)C)C(=O)N[C@H](C(=O)N[C@@H](Cc1c[nH]cn1)C(=O)N[C@@H](Cc1c[nH]cn1)C(=O)N[C@@H](C)C(=O)N[C@H](C(=O)N[C@@H](CO)C(=O)N[C@@H](CCCNC(=N)N)C(=O)NCC(=O)N[C@@H](CO)C(=O)N[C@@H](C)C(=O)N[C@@H](CCCCN)C(=O)O)C(C)C)[C@@H](C)O [NS5 45-61],,,,,0.449 µM,,,,7.5 µM,,,,0.0085 µM,,,,
CC[C@H](C)[C@H](NC(=O)[C@H](C)NC(=O)[C@H](CC(N)=O)NC(=O)[C@H](C)N)C(=O)N[C@@H](Cc1ccccc1)C(=O)N[C@@H](CCCCN)C(=O)N[C@@H](CC(C)C)C(=O)N[C@H](C(=O)N[C@@H](Cc1ccc(O)cc1)C(=O)N[C@@H](CCC(N)=O)C(=O)N[C@@H](CC(N)=O)C(=O)N[C@@H](CCCCN)C(=O)N[C@H](C(=O)N[C@H](C(=O)N[C@@H](CCCCN)C(=O)N[C@H](C(=O)N[C@@H](CCC(N)=O)C(=O)O)C(C)C)C(C)C)C(C)C)[C@@H](C)O [NS5 564-580],0.028 µM,4.81 µM,,1.68 µM,0.305 µM,0.019 µM,0.025 µM,2.6 µM,0.576 µM,,0.39 µM,0.222 µM,,,,11 nM,100 nM
CC[C@H](C)[C@H](NC(=O)[C@@H](NC(=O)[C@H](CCCCN)NC(=O)[C@H](CCCCN)NC(=O)CNC(=O)[C@H](CC(N)=O)NC(=O)[C@H](CCCCN)NC(=O)[C@H](CCCNC(=N)N)NC(=O)[C@H](CC(C)C)NC(=O)[C@H](CS)NC(=O)[C@H](CC(N)=O)NC(=O)[C@H](C)N)C(C)C)C(=O)N[C@@H](CCC(N)=O)C(=O)N[C@@H](CC(C)C)C(=O)N[C@@H](CO)C(=O)O [NS3 373-387],,,,,3.54 µM,,,,3.43 µM,,,,1.63 µM,,,,
TRGAVLTYNGKRLEP [NS3 53-67],,,,,0.329 µM,,,,3.29 µM,,,,11.5 µM,,,,
CC(C)C[C@H](NC(=O)[C@H](CCCCN)NC(=O)CNC(=O)[C@H](CC(C)C)NC(=O)[C@@H](N)Cc1c[nH]cn1)C(=O)N[C@@H](CCC(=O)O)C(=O)N[C@@H](CC(C)C)C(=O)N[C@@H](CC(=O)O)C(=O)N[C@@H](Cc1ccccc1)C(=O)N[C@@H](CC(N)=O)C(=O)N[C@@H](Cc1ccc(O)cc1)C(=O)N[C@@H](CS)C(=O)N[C@@H](CCC(=O)O)C(=O)NCC(=O)N[C@H](C(=O)O)[C@@H](C)O [NS1 269-283],,,,,9.47 µM,,,,0.071 µM,,,,0.085 µM,,,,
CC[C@H](C)[C@H](N)C(=O)N[C@H](C(=O)NCC(=O)N[C@H](C(=O)N[C@@H](CC(C)C)C(=O)N[C@@H](CCC(=O)O)C(=O)N[C@@H](CCC(N)=O)C(=O)NCC(=O)N[C@@H](CCCCN)C(=O)N[C@@H](CCCNC(=N)N)C(=O)N[C@H](C(=O)N[C@@H](CC(C)C)C(=O)N[C@H](C(=O)N1CCC[C@H]1C(=O)N[C@@H](CCC(N)=O)C(=O)O)[C@@H](C)O)[C@@H](C)O)C(C)C)[C@@H](C)CC [NS1 93-107],,,,,3.07 µM,,,,4.35 µM,,,,3.7 µM,,,,
VTFKNAHAKKPEVVV [Envelope 236-250],,,,,0.03 µM,,,,18.2 µM,,,,6.76 µM,,,,
CC(C)C[C@H](NC(=O)[C@H](CCCNC(=N)N)NC(=O)[C@H](CCCCN)NC(=O)CNC(=O)[C@@H](N)CC(N)=O)C(=O)N[C@@H](CCC(=O)O)C(=O)N1CCC[C@H]1C(=O)N[C@@H](CC(N)=O)C(=O)N[C@@H](Cc1c[nH]c2ccccc12)C(=O)N[C@@H](C)C(=O)N[C@@H](CO)C(=O)N[C@H](C(=O)N[C@@H](CCCCN)C(=O)N[C@@H](CCCCN)C(=O)N[C@@H](CC(=O)O)C(=O)O)C(C)C [NS3 61-75],,,,,0.143 µM,,,,1.2 µM,,,,7.03 µM,,,,
